Target: Influenza PB2 (Influenza A virus, UniProt P03428)
Experiment: biochemical
Assay type: binding
Settings: read-out: Influenza PB2 affinity, IC50

Influenza PB2, sequence (P03428 whole entry, looked up): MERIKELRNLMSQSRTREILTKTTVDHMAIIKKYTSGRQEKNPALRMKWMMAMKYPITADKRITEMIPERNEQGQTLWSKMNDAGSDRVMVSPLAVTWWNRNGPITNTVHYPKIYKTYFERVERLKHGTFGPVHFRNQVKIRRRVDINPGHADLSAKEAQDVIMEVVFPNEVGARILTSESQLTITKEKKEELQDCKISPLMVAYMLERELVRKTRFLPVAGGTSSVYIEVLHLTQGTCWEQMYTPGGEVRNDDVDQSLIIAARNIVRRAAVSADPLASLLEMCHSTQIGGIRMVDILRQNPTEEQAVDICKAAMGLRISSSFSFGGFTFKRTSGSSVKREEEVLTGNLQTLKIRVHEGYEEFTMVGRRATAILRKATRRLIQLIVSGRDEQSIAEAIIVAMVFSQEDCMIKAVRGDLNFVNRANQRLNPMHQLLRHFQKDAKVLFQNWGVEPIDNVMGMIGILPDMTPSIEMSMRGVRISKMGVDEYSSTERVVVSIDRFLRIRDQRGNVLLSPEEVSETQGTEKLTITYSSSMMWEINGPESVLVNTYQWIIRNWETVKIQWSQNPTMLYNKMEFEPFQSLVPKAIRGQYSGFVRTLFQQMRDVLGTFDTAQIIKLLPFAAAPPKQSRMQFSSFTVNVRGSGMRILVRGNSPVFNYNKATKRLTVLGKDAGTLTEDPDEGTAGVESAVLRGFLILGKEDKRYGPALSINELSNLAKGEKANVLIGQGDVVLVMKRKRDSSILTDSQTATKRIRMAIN

SMILES | IC50 [µM]
C[C@H](NC(=O)Cn1ccc2cnc(-c3c[nH]c4ncc(F)cc34)nc21)C(=O)O [Compound B11] | 10 to 100
CN(C)C(=O)CCN1CCc2cnc(-c3c[nH]c4ncc(F)cc34)nc21 [Compound B12] | 10 to 100
O=C(O)[C@H]1C2CCC(CC2)[C@@H]1n1cc(Cl)c2cnc(-c3c[nH]c4ncc(Cl)cc34)nc21 [Compound B130] | 1 to 10
N#Cc1cn([C@@H]2C3CCC(CC3)[C@H]2C(=O)O)c2nc(-c3c[nH]c4ncc(Cl)cc34)ncc12 [Compound B191] | < 1
COC(=O)[C@H](C)NC(=O)Cn1ccc2c(-c3c[nH]c4ncc(F)cc34)ncnc21 [Compound A10] | 10 to 100
COC(=O)CNC(=O)Cn1ccc2cnc(-c3c[nH]c4ncc(F)cc34)nc21 [Compound B10] | > 100
O=C(O)[C@@H]1C2CCC(CC2)C1n1cc(-c2ccncc2)c2cnc(-c3c[nH]c4ncc(Cl)cc34)nc21 (single isomer, unassigned) [Compound B190] | 1 to 10
O=C(Cn1ccc2c(-c3c[nH]c4ncc(F)cc34)ncnc21)N[C@@H](CO)C(=O)O [Compound A20] | 1 to 10
C[C@@]1(C(=O)O)CCCC[C@H]1n1cc(F)c2cnc(-c3c[nH]c4ncc(Cl)cc34)nc21 [Compound B91] | < 1
CN(C)C(=O)CN1CCc2cnc(-c3c[nH]c4ncc(F)cc34)nc21 [Compound B6] | 10 to 100
CCCCCOCCOCC(=O)N[C@@H]1CCC[C@H](n2ccc3cnc(-c4c[nH]c5ncc(F)cc45)nc32)C1 [Compound B39] | 10 to 100
CCOC(=O)c1cn([C@@H]2C3CCC(CC3)[C@H]2C(=O)O)c2nc(-c3c[nH]c4ncc(Cl)cc34)ncc12 [Compound B207] | < 1
CCOC(=O)[C@@H]1C2CCC(CC2)[C@H]1n1cc(Cl)c2cnc(-c3c[nH]c4ncc(C#N)cc34)nc21 [Compound B219] | > 100
O=C(N[C@H]1CCC[C@@H](n2cc(F)c3cnc(-c4c[nH]c5ncc(Cl)cc45)nc32)C1)N1CCc2ccccc21 [Compound B102] | > 100
CCOC(=O)[C@H]1C2CCC(CC2)[C@@H]1n1ccc2cnc(-c3c[nH]c4ncc(F)cc34)nc21 [Compound B121] | 10 to 100
CCCCCOCCOCCNC(=O)N1CCC[C@H](n2ccc3cnc(-c4c[nH]c5ncc(F)cc45)nc32)C1 [Compound B33] | 10 to 100
CCOC(=O)C1=C(N2CCc3cnc(-c4c[nH]c5ncc(F)cc45)nc32)CCCC1 [Compound B51] | > 100
O=C(O)[C@@H]1C2CCC(CC2)[C@H]1n1ccc2ccc(-c3c[nH]c4ncc(F)cc34)cc21 [Compound B198] | 10 to 100
O=C(O)C1=C(n2cc(F)c3cnc(-c4c[nH]c5ncc(F)cc45)nc32)C2CCC1CC2 [Compound B222] | < 1
CNC(=O)NCCn1cc(-c2c[nH]c3ncc(F)cc23)c2cncnc21 [Compound C14] | > 100
COC(=O)[C@@]1(C)CCCC[C@@H]1n1ccc2cnc(-c3c[nH]c4ncc(F)cc34)nc21 [Compound B67] | 10 to 100
CCOC(=O)[C@@H]1C2CCC(CC2)[C@H]1n1cc(CCCCSC)c2cnc(-c3c[nH]c4ncc(F)cc34)nc21 [Compound B201] | > 100
O=C(O)[C@H]1CCC[C@@H]1n1ccc2cnc(-c3c[nH]c4ncc(F)cc34)nc21 [Compound B16] | 1 to 10
CNC(=O)[C@]1(C)CCCC[C@H]1n1cc(Cl)c2cnc(-c3c[nH]c4ncc(F)cc34)nc21 [Compound B82] | 10 to 100
O=C(O)[C@@H]1C2CCC(CC2)[C@H]1n1cc(-c2ccccc2O)c2cnc(-c3c[nH]c4ncc(F)cc34)nc21 [Compound B165] | 1 to 10

SMILES | IC50 [µM]
O=C(O)/C=C/n1ccc2cnc(-c3c[nH]c4ncc(F)cc34)nc21 [Compound B18] | 10 to 100
CCOC(=O)[C@]1(C)CCCC[C@H]1n1cc(F)c2cnc(-c3c[nH]c4ncc(F)cc34)nc21 [Compound B90] | > 100
CC(Cn1cc(-c2c[nH]c3ncc(F)cc23)c2cncnc21)C(=O)N(C)C (centres unmarked) [Compound C6] | 10 to 100
CNC(=O)CCn1cc(-c2c[nH]c3ncc(F)cc23)c2cncnc21 [Compound C11] | > 100
CN(C)C(=O)N[C@@H]1CCC[C@H](n2ccc3cnc(-c4c[nH]c5ncc(F)cc45)nc32)C1 [Compound B56] | 10 to 100
CCOCCOCCOCCNC(=O)[C@H]1CCC[C@H](n2ccc3cnc(-c4c[nH]c5ncc(F)cc45)nc32)C1 [Compound B47] | > 100
N#CCCCCc1cn([C@@H]2C3CCC(CC3)[C@H]2C(=O)O)c2nc(-c3c[nH]c4ncc(F)cc34)ncc12 [Compound B193] | < 1
O=C(O)[C@@H]1C2CCC(CC2)[C@H]1n1cc(-c2cccc(O)c2)c2cnc(-c3c[nH]c4ncc(F)cc34)nc21 [Compound B145] | < 1
C=Cc1cnc2[nH]cc(-c3ncc4c(F)cn([C@@H]5C6CCC(CC6)[C@H]5C(=O)O)c4n3)c2c1 [Compound B210] | 1 to 10
O=C(O)[C@@H]1C2CCC(CC2)[C@H]1n1cc(-c2ccoc2)c2cnc(-c3c[nH]c4ncc(F)cc34)nc21 [Compound B161] | < 1
NC(=O)C[C@H](NC(=O)Cn1ccc2c(-c3c[nH]c4ncc(F)cc34)ncnc21)C(=O)O [Compound A17] | 1 to 10
CNC(=O)[C@@H]1C2CCC(CC2)C1n1cc(F)c2cnc(-c3c[nH]c4ncc(Cl)cc34)nc21 (single isomer, unassigned) [Compound B195] | 10 to 100
CCOCCOCCOCCNC(=O)[C@@H]1CCCC[C@@H]1n1ccc2cnc(-c3c[nH]c4ncc(F)cc34)nc21 [Compound B30] | 10 to 100
O=C(O)[C@@H]1C2CCC(CC2)[C@H]1n1ccc2ccc(-c3c[nH]c4ncc(F)cc34)nc21 [Compound B205] | 1 to 10
CCOC(=O)[C@H]1C2CCC(CC2)[C@@H]1n1cc(F)c2cnc(-c3c[nH]c4ncc(F)cc34)nc21 [Compound B129] | 10 to 100
O=C(O)[C@@H]1C2CCC(CC2)[C@H]1n1cc(-c2ccncc2)c2cnc(-c3c[nH]c4ncc(F)cc34)nc21 [Compound B147] | 1 to 10
O=C(O)C1=C(n2cc(F)c3cnc(-c4c[nH]c5ncc(Cl)cc45)nc32)CCCC1 [Compound B103] | < 1
COC(=O)[C@]1(C)CCCC[C@H]1n1cc(C(F)(F)F)c2cnc(-c3c[nH]c4ncc(F)cc34)nc21 [Compound B73] | 10 to 100
N#Cc1cnc2[nH]cc(-c3ncc4c(F)cn([C@@H]5C6CCC(CC6)[C@H]5C(=O)O)c4n3)c2c1 [Compound B214] | 1 to 10
CCCCCOCCCCCN(C)C(=O)N[C@@H]1CCC[C@H](n2ccc3cnc(-c4c[nH]c5ncc(F)cc45)nc32)C1 [Compound B44] | > 100
CCOCCOCCCCC(=O)N[C@H]1CCC[C@@H](n2ccc3cnc(-c4c[nH]c5ncc(F)cc45)nc32)C1 (relative stereo) [Compound B100] | 10 to 100
COC(=O)[C@@H](Cc1ccccc1)NC(=O)CCn1ccc2c(-c3c[nH]c4ncc(F)cc34)ncnc21 [Compound A18] | > 100
COC(=O)[C@H]1CCCN1C(=O)Cn1ccc2c(-c3c[nH]c4ncc(F)cc34)ncnc21 [Compound A15] | > 100
CCOCCOCCCCCNC(=O)N[C@@H]1CCC[C@H](n2ccc3cnc(-c4c[nH]c5ncc(F)cc45)nc32)C1 [Compound B40] | > 100
CCOC(=O)[C@@H]1C2CCC(CC2)[C@H]1n1cc(-c2ccsc2)c2cnc(-c3c[nH]c4ncc(F)cc34)nc21 [Compound B183] | 10 to 100

Reference: patent US11014941B2, “Pyrrolopyrimidine derivatives useful as inhibitors of influenza virus replication” (priority 2017, dated 2021)
